1 compound from paper PMC10897476, “Pyridylpiperazine efflux pump inhibitor boosts in vivo antibiotic efficacy against K. pneumoniae” (EMBO Molecular Medicine, 2023) can be followed below.

One data set concerns E. coli BW25113. In words: PyrPip boosting of pyridomycin activity in E. coli (resazurin reduction). In kind it is cell-based, Escherichia coli. The following applies: E. coli BW25113 in the presence of 8 μg/mL pyridomycin, resazurin reduction; mean ± SEM. The text has this: With the aim of developing a PyrPip for in vivo efficacy studies in mice, it was important to optimise the metabolic stability of these efflux pump inhibitors to guarantee sufficient exposure in mice needed for antibiotic boosting. […] To identify metabolically stabilised PyrPips while maintaining AcrB inhibition, it was therefore decided to explore modifications to the quinoline core as well as the introduction of substituents at position 6 of the quinoline ring.
On the technique in general: Resazurin is reduced to fluorescent resorufin, in cell work by metabolically active cells.

Data set [1] in a line: Microsomal stability in mouse liver microsomes. In kind it is in vitro ADME. The protocol: To determine compound microsomal stability, liver microsomes from female mice (CD-1, Corning) were used. All incubations were performed in duplicate in a shaking water bath at 37 °C. The incubation mixtures contained 1 μM compound with 1% MeOH used as a vehicle, mouse liver microsomes (0.3 mg of microsomal protein per mL), 5 mM MgCl2, 1 mM NADP, 5 mM glucose 6-phosphate, 0.4 U/mL glucose 6-phosphate dehydrogenase, and 50 mM potassium phosphate buffer (pH 7.4) in a final volume of 0.5 mL. Propranolol, known as a high hepatic clearance drug in rodents, was used as a quality-control compound. Controls (t0 and tfinal) were performed in the same conditions but without NADP. The reaction was initiated by the addition of the compound at 1 µM final. Aliquots were removed at 5, 10, 20, 30, and 40 min and the reaction was stopped by adding four volumes of ice-cold MeCN or MeOH containing an internal standard. The samples were centrifuged for 10 min at 12,000 rpm at 4 °C and the supernatants were transferred in matrix tubes for LC-MS/MS analysis. Each compound was quantified by converting the corresponding analyte/internal standard peak area ratios to percentage drug remaining, using the initial ratio values in control incubations as 100%.
Intrinsic clearance (CLint) is expressed as μL/min/mg proteins.
On the technique in general: Microsomes from liver hold many membrane-bound enzymes, among them those of drug oxidation.

Another data set relates to K. pneumoniae AcrB^V448E. Kind of data set: MIC of antibiotics with and without EPI (REMA), AcrB V448E mutant. In kind it is cell-based, Klebsiella pneumoniae. The following applies: K. pneumoniae-AcrB^V448E, Table 2. The protocol: (§1) MIC experiments were carried out according to the CLSI guidelines (CLSI [2023]). Overnight cultures were diluted to an OD600 = 0.001 in CAMHB followed by addition of efflux pump inhibitors (EPIs) at a final concentration of 100 µM. […] Plates were incubated at 37 °C for up to 20 h. Bacterial viability was evaluated using the resazurin microtitre assay (REMA) and measured by fluorescence using a Tecan Spaert multimode plate reader (Ex: 530 nm Em: 590 nm). MICs were defined as the concentration that prevented 90% of resazurin turnover compared to the non-treated bacteria.
(§2) Mutations in acrB or ramR identified in the BDM88855.HCl (1’) resistant mutant (a.k.a., KPJC11) were introduced individually into K. pneumoniae ATCC 43816 chromosome by allelic exchange (Cianfanelli et al, [2020]). Briefly, 1-kb PCR products centred around each point mutation were generated by amplifying acrB with primers RH1251 ([…][…]) and RH1252 ([…][…]) or ramR with primers RH1249 ([…][…]) and RH1250 ([…][…]) from KPJC11 genomic DNA. PCR fragments were cloned into pFOK (Cianfanelli et al, [2020]) using NEB-building kit ([New England Biolabs]) to generate pEP1533 and pEP1534. Correct plasmids were confirmed by sequencing and introduced into K. pneumoniae ATCC43816 WT via conjugation with the MFDpir+ E. coli donor strain. Exconjugants were selected on kanamycin (50 mg/L) plates at 37 °C and plasmid chromosomal integration was checked by PCR. […] The next day, cultures were diluted and plated onto LB agar. Isolated colonies were then patched onto LB plates with or without kanamycin (50 mg/L) and Km^S candidates were evaluated for correct allelic exchange via acrB or ramR sequencing and then WGS to confirm no additional mutations were introduced.

The subject of data set [2] is K. pneumoniae RamR^mut (K124*stop). Kind of data set: MIC of antibiotics with and without EPI (REMA), RamR mutant. The class given is cell-based, Klebsiella pneumoniae. The following applies: K. pneumoniae-RamR^mut, Table 2. As to the method:
as §1, §2

Regarding `Clc1cc2ccccc2nc1N1CCNCC1` [compound 1], in the data set with E. coli BW25113, the “PyrPip antibiotic boosting activity EC90” value is 3.6 ± 0.5 µM. For the same compound, in data set [1], the “Microsomal stability CLint (intrinsic clearance)” value was found to be 59 μL/min/mg proteins and the “Microsomal stability t1/2” value came to 24 min. In addition, the “susceptibility of the strain to antibiotic boosting by the EPI, in words” value in the data set on K. pneumoniae AcrB^V448E is on record as “resistant”. Besides, the “EPI mediated antibiotic boosting, in words” value in data set [2] is “maintained”.
